Data as given in patent US4797280A, “Antibiotics produced by Kibdelosporangium aridum Shearer gen. nov., sp. nov. ATCC 39323” (SmithKline Beckman Corporation, priority 1986, dated 1989).

How the values were obtained:
[1] = tested on: swine ileal or cecal inoculum; assay: Swine in vitro model (ileal/cecal inoculum fermentation); set-up: species or system swine (Yorkshire barrow)
Kibdelosporangium aridum = assay: Susceptibility of K. aridum to antibiotics, disk diffusion; format: cell-based; details: disk 30 μg, 28° C., one week
Method: Susceptibility of K. aridum to antibiotics was examined by placing BBL susceptibility disks on nutrient agar plates seeded with K. aridum as an overlay. Diameters of the zones of inhibition were measured after incubation for one week at 28° C.
Susceptibility to Antibiotics. […] Chlortetracycline ([…]) produced 18 mm zones of inhibition; tetracycline (5 μg) 11-12 mm zones; rifampin (5 μg) 11-15 mm zones; novobiocin (5 μg) 27-28 mm zones. All zones of inhibition contained at least a few resistant colonies.

rumen inoculum = assay: Rumen in vitro model; set-up: species or system steer

Structure (SMILES): CN[C@H](CC(C)C)C(=O)N[C@H]1C(=O)N[C@@H](CC(N)=O)C(=O)N[C@H]2C(=O)N[C@H]3C(=O)N[C@H](C(=O)N[C@H](C(=O)O)c4cc(O)cc(O)c4-c4cc3ccc4O)[C@H](O)c3ccc(c(Cl)c3)Oc3cc2cc(c3O[C@@H]2O[C@H](CO)[C@@H](O)[C@H](O)[C@H]2O[C@H]2C[C@](C)(N)[C@H](O)[C@H](C)O2)Oc2ccc(cc2Cl)[C@H]1O [Vancomycin]
- GLU ([1]; 1.67 ppm): 100 % Control
- LAC ([1]; 1.67 ppm): 99 % Control
- LYS ([1]; 1.67 ppm): 83 % Control
- VFA ([1]; 1.67 ppm): 92 % Control
- GLU ([1]; 16.67 ppm): 189 % Control
- LAC ([1]; 16.67 ppm): 59 % Control
- LYS ([1]; 16.67 ppm): 42 % Control
- VFA ([1]; 16.67 ppm): 280 % Control
- GLU ([1]; 166.67 ppm): 190 % Control
- LAC ([1]; 166.67 ppm): 64 % Control
- LYS ([1]; 166.67 ppm): 48 % Control
- VFA ([1]; 166.67 ppm): 250 % Control
- Susceptibility of K. aridum (Kibdelosporangium aridum): resistant
- % PR (rumen inoculum; 0.5 ppm): 105% OF CONTROL
- ACE (rumen inoculum; 0.5 ppm): 95% OF CONTROL
- AMO (rumen inoculum; 0.5 ppm): 0% OF CONTROL
- BUT (rumen inoculum; 0.5 ppm): 96% OF CONTROL
- DLAC (rumen inoculum; 0.5 ppm): 0% OF CONTROL
- ETOH (rumen inoculum; 0.5 ppm): 0% OF CONTROL
- IBU (rumen inoculum; 0.5 ppm): 115% OF CONTROL
- IVA (rumen inoculum; 0.5 ppm): 82% OF CONTROL
- LLAC (rumen inoculum; 0.5 ppm): 0% OF CONTROL
- PRO (rumen inoculum; 0.5 ppm): 103% OF CONTROL
- TOTAL (rumen inoculum; 0.5 ppm): 97% OF CONTROL
- UREA (rumen inoculum; 0.5 ppm): 0% OF CONTROL
- VAL (rumen inoculum; 0.5 ppm): 95% OF CONTROL
- VFA (rumen inoculum; 0.5 ppm): 97 % Control
- % PR (rumen inoculum; 5 ppm): 130% OF CONTROL
- ACE (rumen inoculum; 5 ppm): 93% OF CONTROL
- AMO (rumen inoculum; 5 ppm): 0% OF CONTROL
- BUT (rumen inoculum; 5 ppm): 98% OF CONTROL
- DLAC (rumen inoculum; 5 ppm): 0% OF CONTROL
- ETOH (rumen inoculum; 5 ppm): 0% OF CONTROL
- IBU (rumen inoculum; 5 ppm): 137% OF CONTROL
- IVA (rumen inoculum; 5 ppm): 99% OF CONTROL
- LLAC (rumen inoculum; 5 ppm): 43% OF CONTROL
- TOTAL (rumen inoculum; 5 ppm): 108% OF CONTROL
- UREA (rumen inoculum; 5 ppm): 0% OF CONTROL
- VAL (rumen inoculum; 5 ppm): 90% OF CONTROL
- VFA (rumen inoculum; 5 ppm): 108 % Control
- Propionate % (rumen inoculum; 5 ppm, propionate as % of total VFA): 130 % Control
- % PR (rumen inoculum; 50 ppm): 127% OF CONTROL
- ACE (rumen inoculum; 50 ppm): 87% OF CONTROL
- AMO (rumen inoculum; 50 ppm): 0% OF CONTROL
- BUT (rumen inoculum; 50 ppm): 111% OF CONTROL
- DLAC (rumen inoculum; 50 ppm): 0% OF CONTROL
- ETOH (rumen inoculum; 50 ppm): 0% OF CONTROL
- IBU (rumen inoculum; 50 ppm): 164% OF CONTROL
- IVA (rumen inoculum; 50 ppm): 212% OF CONTROL
- LLAC (rumen inoculum; 50 ppm): 999% OF CONTROL
- PRO (rumen inoculum; 50 ppm): 136% OF CONTROL
- TOTAL (rumen inoculum; 50 ppm): 107% OF CONTROL
- UREA (rumen inoculum; 50 ppm): 0% OF CONTROL
- VAL (rumen inoculum; 50 ppm): 83% OF CONTROL
- VFA (rumen inoculum; 50 ppm): 107 % Control
